Laboratory results as given in patent US20200121721A1, “METHODS FOR GENETIC MODIFICATION OF HEMATOPOIETIC CELLS” (THE BRIGHAM AND WOMEN'S HOSPITAL, INC., priority 2014, published 2020).
Square brackets hold non-standard residues; d marks the D form. Peptide text beside a SMILES is read from it. Aoe = N[C@@H](CCCCCC(=O)[C@@H]1CO1)C(=O)O

Assays:
[1] = system: primary human CD34+ cells from PBSC; assay: Screening of compounds which increase CD34+CD90+ cells (high throughput flow cytometry); assay type: cell-based; settings: for CD34+CD90+ population compared with that of DMSO treated CD34+ cells: PBSC CD34+ cells, 4 or 5-day culture with cytokines (CC100), FIG. 1A; for absolute number of CD34+CD90+ cells: screen, compared with other compounds, FIG. 1B
Text: Cells were stained with antihuman CD34 monoclonal antibody conjugated to phycoerythrin (PE), or allophycocyanin (APC), antihuman CD90 conjugated fluorescein isothiocyanate (FITC) or APC, CD38 APC, CD 3 tri-color (TC), CD19 TC, CD11b TC, CD41 TC, CD45 FITC and mouse CD45 APC. The flow cytometry data were collected using FACS Calibur flow cytometer (Becton Dickinson, San Jose, Calif., USA) or and analysed by using FLOWJO software.
To identify or confirm the molecules that expand CD34+CD90+ cells, the Inventors developed an assay using primary human CD34+ cells from PBSC and evaluated CD34 and CD90 expression by high throughput flow cytometry after a 4 or 5-day culture.
Using this assay, the Inventors screened FDA approved 446 compounds and 14 small molecule drugs including a panel of epigenetic modifiers as shown in Table 2. Human PBSC CD34+ cells were purified and cultured in IMDM with fetal bovine serum (FBS; GIBCO; final concentration 30%) and CC100 (a CD34 maintaining culture medium containing stem cell factor; SCF, Flt3 ligand; FL, Interleukin-3; IL3 and Interleukin-6; IL6; Stem Cell Technologies).

[2] = system: CD34+ cells; assay: Annexin V staining (apoptosis); assay type: cell-based, human; settings: day 3, 5 and 7
Description: To investigate whether the lower total nucleated cell number observed in TSA treated culture was possibly due to apoptosis, annexin V staining with TSA, MS275 or DMSO treated cells on day 3, 5 and 7 was performed.

[3] = system: PBSC CD34+ cells; assay: Ex vivo culture of PBSC CD34+ cells with TSA or MS275 (CD34+CD90+ expansion, cell growth); assay type: cell-based, human; settings: for expression of CD34+CD90+ cells after one day exposure: 24 hours exposure then washed or not washed, evaluated on day 3 and day 5; for growth rate compared with DMSO / cell growth (cell number) of CD34+ cells: FIG. 3A; for cell growth (cell number) of CD34+ cells: mean±SDV of three experiments; for absolute number of CD34+CD90+ cells: from day 5 to day 7
[4] = system: PBMC CD34+ cells; assay: In vitro colony formation in methylcellulose (CFU assay); assay type: cell-based, human; settings: eight days after plating
Description: Tubes of MethoCult® H4434 (Stem Cell Technologies) medium were thawed overnight in a 4° C. refrigerator. The next morning CB CD34+ cells were prepared at 10× the final concentration required. Cell suspensions of 2000 cells per 0.3 mL were prepared. Cells were added to 3 mL of MethoCult® medium for duplicate cultures. A 16 gauge blunt-end needle attached to a 3 cc syringe was used to dispense the cells and MethoCult® medium into culture dishes. 1.1 mL of cells was dispensed per 35 mm dish. The two dishes were placed into a 100 mm petri dish and a third, uncovered 35 mm dish containing 3 mL of sterile water was also added. All 3 dishes were then covered within the 100 mm petri dish. […] […] CFUs were counted under the microscopy.
Since the CD34+CD90+ cells are a CD34+ subpopulation with severe combined immunodeficient (SCID) repopulating activity (SRA), The Inventors next test whether the preferential expansion of these cells mediated by TSA or MS-275 treatment can lead to increased hematopoietic differentiation/proliferation in vitro and SRA engraftment in vivo. The Inventors first treated PBMC CD34+ cells with TSA or MS-275 treatments followed by assessment of in vitro colony formation in methylcellulose. […] To quantify large and small colonies, The Inventors classified as large as >50 and small as 5-50 clusters, respectively.

[5] = system: PBMC CD34+ cells; assay: Lentiviral transduction (GFP vector) of CD34+ cells; assay type: cell-based, human
Description: Lentiviral particles were generated by transient co-transfection of 293T cells with the lentiviral vectors pLL3.7, pHR'8.9ΔVPR and pCMV-VSVG. CD34+ cells were infected in medium containing lentiviral particles and 8 μg/ml protamin. The culture medium was then removed and replaced with fresh media.
Next, the Inventors investigated whether expansion of CD34+CD90+ cells by TSA could affect the lentiviral transduction efficacy. A transfer vector encoding green fluorescent protein (GFP) was used for evaluation of lentiviral transduction. PBMC CD34+ cells were cultured with or without TSA for 3 days, followed by lentiviral transduction with protamin twice for 48 hours (FIG. 15A).

[6] = system: cord blood CD34+CD90+ cells; settings: cited from earlier work
[7] = system: CB CD34+ cells; assay: Engraftment of cultured CD34+ cells in NSG mice (SCID repopulating activity); assay type: in vivo
Description: NSG (NOD.Cg-Prkdcscid Il2rgtm1Wjl/SzJ, The Jackson Laboratory, ME, USA) mice were bred and maintained in the Children's Hospital Boston animal facility. All animal work has been approved by and done according to the guidelines of the IACUC under protocol 10-101832. The CB CD34+ cells treated with wild type-peptide and scrambled-peptide were injected intravenously via the tail vein into sub-lethally irradiated (220 rads) 8 to 16-week-old NSG mice. Engraftment was performed within 24 h after irradiation. Peripheral blood (PB) chimerism was monitored at 2 and 8 weeks post transplantation. Bone marrow (BM) chimerism was monitored at 8 weeks post transplantation. […] The percentage of human CD45+ cells was calculated as follows: % human CD45+ cells=No. human CD45+ cells/(No. human CD45+ cells + No. mouse CD45+ cells)×100. […]
Based on in vitro phenotypic analysis described above, The Inventors transplanted cells after culture for 5 or7 days with cytokine alone or TSA into NSG mice to evaluate immunodeficient (SCID) repopulating activity (SRA) as a measure of enhanced HSPC function. Because Vanheuden et al, reported that severe combined immunodeficient (SCID) repopulating activity (rSRA) is mediated by CD34+CD38CD90+CD45RA− cells after in vitro culture, the Inventors first analyzed SRA activity in peripheral blood (PB) 2 weeks after transplant.

[8] = system: CD34+ cells; assay: CFSE labeling to assess cell division; assay type: cell-based, human; settings: by day 5, CFSE
Description: Primary CD34+ cells were labeled for 10 minutes at 37° C. with 0.5 uM of carboxyfluorescein diacetate succinimidyl ester (CSFE; Invirtogen, NY, USA) in PBS. After […] of culture, cell were labeled with CD34 PE and analyzed for a progressive decline of fluoredcence intensity of CSFE using FACSCalibur flow cytometer.
To assess whether the lower total nucleated cell number observed in TSA treated culture was due to a delay in differentiation or proliferation, the Inventors performed a cell-division-monitoring dye carboxyfluorescein succinimidyl ester (CFSE) assay, a fluorescent cytoplasmic dye which allowed counting of cell divisions of CD34+ cells after in vitro culture. While 66.0% of non-treated CD34+ cells divided at least more than 4 times by day 5, only 9.02% of TSA treated cells went through a similar number of cell divisions (FIG. 3B).
The Inventors then investigated whether TSA treatment led to increased CD34+CD90+ cells through self-renewal proliferation as assessed by surface markers. Using CD34+CD90− cells as a control population, the cell division profile of CD34+CD90+ cells upon TSA treatment was analyzed using the CSFE assay after 5 and 7 days of in vitro culture.

[9] = system: PBSC CD34+ cells; assay: Real-time PCR of stem cell related genes; assay type: cell-based, human; settings: 3 days of culture, relative to DMSO, p<0.05
Text: Inventors prepared RNA from cells treated with wild-type or scrambled peptide using TRIzol (Invitrogen). The Inventors synthesized cDNA using iScript cDNA Synthesis kit (Bio-Rad, CA, USA). To quantitate the level of mRNAs expression, The Inventors carried out polymerase chain reaction (PCR) amplification using iScript one-step RT-PCR kit with SYBER Green (Bio-Rad) and the PCR products were detected by use of SYBR green technology (ABI, Foster City, Calif., USA). GAPDH was used as an endogenous control. All samples were run in duplicate. Thermal cycler conditions were 50° C. for 2 minutes, 95° C. for 10 minutes, and 45 cycles of 95° C. for 0.30 minutes and 60° C. for 1 minute. Results were obtained as threshold cycle (Ct) values and normalized gene expression with GAPDH. Data were analyzed based on 2-ΔΔCT method using CFX Manager software (Bio-Rad). For QPCR primers see Table 1.
Next, to investigate the molecular mechanism responsible for the expansion of functional HSCs and HSPC observed following TSA treatment, the Inventors examined expression levels of a number of genes involved in self-renewal or differentiation of stem cells using realtime PCR.

[10] = system: CD34+ cells; assay: UM171 effect on division of CD34+ cells (total cell numbers); assay type: cell-based; settings: 50 nM to 500 nM (1 uM); commercial and synthesized UM171

Nc1ccccc1NC(=O)c1ccc(CNC(=O)OCc2cccnc2)cc1 [MS275]
CD34+CD90+ population compared with that of DMSO treated CD34+ cells [1]: expanded CD34+CD90+ population | absolute number of CD34+CD90+ cells [1]: expanded the absolute number of CD34+CD90+ cells more than that of other compounds | apoptotic cells (annexin V) ([2]; 500 nM): did not significantly increased apoptotic cells | expression of CD34+CD90+ cells after one day exposure [3]: limit the expression of CD34+CD90+ cells | growth rate compared with DMSO [3]: about 2 times lower | cell growth (cell number) of CD34+ cells [3]: 16.7×10^4±1.06 | absolute number of CD34+CD90+ cells [3]: increased | size of colonies derived from CFU-GM compared with control group [4]: much larger than control group

O=C(CCCCCCC(=O)Nc1ccccc1)NO [SAHA]
CD34+CD90+ population compared with that of DMSO treated CD34+ cells [1]: expanded CD34+CD90+ population

CC(C)n1cnc2c(NCCc3ccc(O)cc3)nc(-c3csc4ccccc34)nc21 [SR1]
CD34+CD90+ population compared with that of DMSO treated CD34+ cells [1]: expanded CD34+CD90+ population

CC(/C=C/C(=O)NO)=C\[C@@H](C)C(=O)c1ccc(N(C)C)cc1 [TSA, trichostatin]
lentiviral transduction for CD34+ cells ex vivo [5]: promoted the lentiviral transduction | percentage of CD34+GFP+ cells ([5]; 3 days culture with TSA, then lentiviral transduction, vs cells without treatment): higher than that of cells without treatment | expansion of CD34+CD90+ cells (reported) [6]: reported to expand CD34+CD90+ cells | percentage of human CD45+ engraftment in peripheral blood ([7]; 2 weeks after transplant, day 5 progeny of 2×10^4 CB CD34+ cells, vs cytokine alone): higher percentage of human CD45+ engraftment | marrow-repopulating potential (human CD45+ cell engraftment in PB and BM) ([7]; 8 weeks after transplantation): enhances the marrow-repopulating potential | CD34+CD90+ population compared with that of DMSO treated CD34+ cells [1]: expanded CD34+CD90+ population | absolute number of CD34+CD90+ cells [1]: expanded the absolute number of CD34+CD90+ cells more than that of other compounds | apoptotic cells (annexin V) ([2]; 50 nM): did not significantly increased apoptotic cells | CD34+CD90+ cells less divided than CD34+CD90− cells ([8]; TSA treatment): 31.4% | CD34+CD90+ cells more divided than CD34+CD90− cells ([8]; TSA treatment): about 66.7% | CD34+ cells divided at least more than 4 times [8]: 9.02% | expression of CD34+CD90+ cells after one day exposure [3]: limit the expression of CD34+CD90+ cells | growth rate compared with DMSO [3]: about 2 times lower | cell growth (cell number) of CD34+ cells [3]: 28.3×10^4±0.49 | expansion of CD34+CD90+ cells compared with DMSO treated cells ([3]; day 3, day 5 and day 7, p<0.05): preferential expansion of CD34+CD90+ cells | absolute number of CD34+CD90+ cells [3]: increased | size of colonies derived from CFU-GM compared with control group [4]: much larger than control group | proportion of large (>50 clusters) and small (5-50 clusters) colonies ([4]; FIG. 13B): gave mainly rise to large colonies | levels of transcripts for GATA1, GATA2, HOXA9, HOXB4, PTEN, SALL4, p53, TPO and CD34 genes [9]: higher levels of transcripts

Cn1nnc(-c2ccc3c(c2)[nH]c2nc(Cc4ccccc4)nc(NC4CCC(N)CC4)c23)n1 (stereo not drawn) [UM171]
total cell numbers [10]: very similar

COc1cc2c(NC3CCN(C(C)C)CC3)nc(C3CCCCC3)nc2cc1OCCCN1CCCC1 [UNC0638]
CD34+CD90+ population compared with that of DMSO treated CD34+ cells [1]: expanded CD34+CD90+ population

CCCC(CCC)C(=O)O [Valproic acid]
expansion of CD34+CD90+ cells (reported) [6]: reported to expand CD34+CD90+ cells

O=C1N[C@@H](Cc2ccccc2)C(=O)N2CCC[C@@H]2C(=O)N[C@@H](CCCCCC(=O)[C@@H]2CO2)C(=O)N[C@H]1Cc1ccccc1 [trapoxin] (cyclo(FF[dP][Aoe]))
expansion of CD34+CD90+ cells (reported) [6]: reported to expand CD34+CD90+ cells
